# From patent publication US20250215029A1 (Recludix Pharma, Inc., priority 2022, published 2025)
# Biological target: T1, pY705-STAT3 in PBMC (Homo sapiens, UniProt P40763)
# T1 construct: Cryopreserved Peripheral Blood Mononuclear Cells (PBMC) are from AllCells; host or cells: cryopreserved PBMC
# Assay: MSD-pSTAT-PBMC Assay (pSTAT3, IL-6 stimulated)
# Assay type: cell-based
# Settings: PBMC, compound 3 hrs, then 10 ng/mL IL-6 for 10 min; Table 115; read-out: STAT3
# In short: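 Cells are preincubated with compound for 3 hrs, then stimulated for 10 min, IL-4 at 1 ng/mL driving STAT6 phosphorylation and IL-6 at 10 ng/mL driving STAT3. Phospho-STAT in lysates is quantified by MSD immunoassay, and IC50 is fitted after subtracting unstimulated wells.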
# T1 sequence (P40763 whole entry): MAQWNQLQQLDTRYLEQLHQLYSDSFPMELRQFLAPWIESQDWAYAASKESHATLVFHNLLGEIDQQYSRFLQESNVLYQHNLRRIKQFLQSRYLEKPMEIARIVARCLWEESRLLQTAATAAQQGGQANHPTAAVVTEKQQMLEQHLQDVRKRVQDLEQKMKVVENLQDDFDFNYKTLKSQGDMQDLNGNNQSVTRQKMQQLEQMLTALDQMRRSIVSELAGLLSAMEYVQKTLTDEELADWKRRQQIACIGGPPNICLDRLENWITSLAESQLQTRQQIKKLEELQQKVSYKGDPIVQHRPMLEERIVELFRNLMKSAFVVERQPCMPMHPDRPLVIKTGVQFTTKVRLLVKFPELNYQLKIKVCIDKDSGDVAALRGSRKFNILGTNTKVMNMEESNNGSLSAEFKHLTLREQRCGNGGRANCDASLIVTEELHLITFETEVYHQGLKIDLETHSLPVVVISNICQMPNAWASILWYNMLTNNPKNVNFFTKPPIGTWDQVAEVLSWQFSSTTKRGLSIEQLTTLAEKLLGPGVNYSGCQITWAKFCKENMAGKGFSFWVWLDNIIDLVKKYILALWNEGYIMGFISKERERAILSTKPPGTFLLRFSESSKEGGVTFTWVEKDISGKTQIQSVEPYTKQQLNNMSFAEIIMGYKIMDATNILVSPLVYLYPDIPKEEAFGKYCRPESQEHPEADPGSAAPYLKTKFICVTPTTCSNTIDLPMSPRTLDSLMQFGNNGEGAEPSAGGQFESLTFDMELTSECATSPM
row,Structure (SMILES),IC50 [µM]
1,"CN=S(C)(=O)CC1(OC)CN(C(=O)C2CCC3CCCC(NC(=O)c4cc5cc(C(F)(F)P(=O)(OCCSC(=O)C(C)(C)C)OCCSC(=O)C(C)(C)C)ccc5s4)C(=O)N32)C1 [Compound 1015, S,S′-(((((2-(((3S,6S,9aS)-3-(3-((N,S-dimethyl-sulfonimidoyl)methyl)-3-methoxyazetidine-1-carbonyl)-5-oxooctahydro-1H-pyrrolo[1,2-a]azepin-6-yl)carbamoyl)benzo [b]thiophen-5-yl)difluoromethyl)phosphoryl)bis(oxy))bis(ethane-2,1-diyl)) bis(2,2-dimethyl-propanethioate)]",< 0.1
2,"CCCOC(=O)[C@H](C)NP(=O)(Cc1ccc2sc(C(=O)N[C@H]3CC[C@H](C)C[C@H]4CC[C@@H](C(=O)N5CC(c6cnccc6F)C5)N4C3=O)cc2c1)Oc1ccccc1 (stereo partly drawn) [Compound 993, propyl (((2-(((3S,6S,9S,10aR)-3-(3-(4-fluoropyridin-3-yl)azetidine-1-carbonyl)-9-methyl-5-oxodecahydropyrrolo [1,2-a]azocin-6-yl)carbamoyl)benzo [b]thiophen-5-yl)methyl)(phenoxy)phosphoryl)-L-alaninate]",< 0.1
3,"CC(C)CC(=O)SCCOP(=O)(OCOC(=O)OC1COC1)C(F)(F)c1ccc2sc(C(=O)N[C@H]3CCC[C@H]4CC[C@@H](C(=O)N5CC(c6ncccn6)C5)N4C3=O)cc2c1 (stereo partly drawn) [Compound 1095, S-(2-(((difluoro(2-(((3S,6S,9aS)-5-oxo-3-(3-(pyrimidin-2-yl)azetidine-1-carbonyl)octahydro-1H-pyrrolo[1,2-a]azepin-6-yl)carbamoyl)benzo [b]thiophen-5-yl)methyl) ((((oxetan-3-yloxy)carbonyl)oxy)methoxy)phosphoryl)oxy)ethyl) 3-methyl-butanethioate]",< 0.1
4,CCCOC(=O)[C@H](C)NP(=O)(Oc1ccccc1)[C@H](F)c1ccc2sc(C(=O)N[C@H]3CCC[C@H]4CC[C@@H](C(=O)N5CC(c6cncnc6N(C)C)C5)N4C3=O)cc2c1 (stereo partly shown) [Compound 1068],< 0.1
5,"CCCOC(=O)[C@H](C)NP(=O)(Oc1ccccc1)[C@H](F)c1ccc2sc(C(=O)N[C@H]3CCC[C@H]4CC[C@@H](C(=O)N5CC(c6cnccc6N6CC(OC)C6)C5)N4C3=O)cc2c1 (stereo partly drawn) [Compound 1063, propyl (((S)-fluoro(2-(((3S,6S,9aS)-3-(3-(4-(3-methoxyazetidin-1-yl)pyridin-3-yl)azetidine-1-carbonyl)-5-oxooctahydro-1H-pyrrolo[1,2-a]azepin-6-yl)carbamoyl)benzo [b]thiophen-5-yl)methyl)(phenoxy)phosphoryl)-L-alaninate]",< 0.1

# Biological target: T2, pY641-STAT6 in PBMC (Homo sapiens, UniProt P42226)
# T2 construct: Cryopreserved Peripheral Blood Mononuclear Cells (PBMC) are from AllCells; host or cells: cryopreserved PBMC
# T2 sequence (P42226 1-847): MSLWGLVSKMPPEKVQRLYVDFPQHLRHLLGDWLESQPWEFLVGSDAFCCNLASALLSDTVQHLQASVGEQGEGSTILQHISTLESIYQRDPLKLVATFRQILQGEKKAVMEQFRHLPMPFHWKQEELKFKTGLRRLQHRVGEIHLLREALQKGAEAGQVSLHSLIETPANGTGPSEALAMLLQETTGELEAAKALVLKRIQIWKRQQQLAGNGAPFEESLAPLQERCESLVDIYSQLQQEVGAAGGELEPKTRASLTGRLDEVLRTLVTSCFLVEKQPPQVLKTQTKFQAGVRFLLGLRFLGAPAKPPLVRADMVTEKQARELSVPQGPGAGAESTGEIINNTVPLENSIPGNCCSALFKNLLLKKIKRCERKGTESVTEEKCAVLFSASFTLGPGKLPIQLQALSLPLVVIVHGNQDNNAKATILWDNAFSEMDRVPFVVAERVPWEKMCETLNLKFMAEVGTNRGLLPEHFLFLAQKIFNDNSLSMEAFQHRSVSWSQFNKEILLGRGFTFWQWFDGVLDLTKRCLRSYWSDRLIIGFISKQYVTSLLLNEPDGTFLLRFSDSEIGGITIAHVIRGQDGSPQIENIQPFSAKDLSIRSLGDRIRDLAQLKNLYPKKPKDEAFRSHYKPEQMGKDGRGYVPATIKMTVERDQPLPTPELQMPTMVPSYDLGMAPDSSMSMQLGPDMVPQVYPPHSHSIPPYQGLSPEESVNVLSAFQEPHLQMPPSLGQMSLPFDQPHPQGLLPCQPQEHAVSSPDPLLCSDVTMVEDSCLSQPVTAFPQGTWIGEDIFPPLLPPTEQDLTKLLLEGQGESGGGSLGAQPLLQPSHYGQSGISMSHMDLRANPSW
# Assay: MSD-pSTAT-PBMC Assay (pSTAT6, IL-4 stimulated)
# Assay type: cell-based
# Settings: PBMC, compound 3 hrs, then 1 ng/mL IL-4 for 10 min; Table 115; read-out: STAT6
# From the text: Cryopreserved Peripheral Blood Mononuclear Cells (PBMC) are from AllCells. Recombinant Human IL-4 and IL-6 are from Peprotech. Mouse monoclonal anti-STAT3 antibody, rabbit monoclonal anti-pY705-STAT3 antibody, rabbit monoclonal Anti-pY641-STAT6 antibody, and lysis buffer are from Cell Signaling Technology (CST). Mouse monoclonal anti-STAT6 antibody is from BioLegend. Assay plates, blocker, and anti-rabbit secondary antibody are from Meso Scale Discovery (MSD).
# Cyropreserved PBMCs were thawed out and allowed to recover overnight in IMDM+10% heat-inactivated FBS prior to plating 50,000 (STAT3) or 25,000 (STAT6) cells per well in 96-well U-bottom tissue culture plates. Cells were treated with compound for 3 hrs, then stimulated with 10 ng/mL IL-6 (STAT3) or 1 ng/mL IL-4 (STAT6) for 10 min. Cells were then spun down and washed with ice-cold PBS prior to lysing the cell pellet with 1× lysis buffer (CST) with 1× HALT protease and phosphatase inhibitor cocktail (Thermo). Lysates were transferred to and incubated overnight at 4° C. with shaking in QuickPlex 96-well high bind assay plates (MSD) pre-coated overnight with 30 μL per well of 0.6 μg/mL mouse monoclonal anti-STAT3 antibody (STAT3) or 2 μg/mL mouse monoclonal anti-STAT6 antibody (STAT6) in 1× PBS, and pre-blocked for 1 hour with 3% Blocker-A (MSD). Captured protein in the assay plates were then washed and probed with 25 μL per well of […] rabbit monoclonal anti-pY705-STAT3 antibody (STAT3) or 0.18 μg/ml rabbit monoclonal Anti-pY641-STAT6 antibody (STAT6) in 1% Blocker-A for 1 hour at room temperature with shaking, then washed and probed with 25 ul per well of 1 ug/ml Sulfo-TAG Labeled Goat Anti-Rabbit Antibody (MSD) in 1% Blocker-A for 1 hour at room temperature with shaking. Assay plates were then washed and 150 μL of 1× Read Buffer-T (MSD) was added to each well prior to reading on an SQ120 MSD Plate Reader. Assay signal from each sample was subtracted by the signal from unstimulated control wells and normalized to DMSO control wells. IC50 values were calculated using Graph Pad Prism Dose-Response Nonlinear Regression with variable slope. For both pSTAT3 and pSTAT6 A=≤100 nM; B 100-1000 nM; C=>1000-3000 nM; D=>3 μM; and NT=Not Tested.
row,IC50 [µM],Structure (SMILES)
1,< 0.1,"CC(C)(C)C(=O)SCCOP(=O)(OCCSC(=O)C(C)(C)C)C(F)(F)c1ccc2sc(C(=O)N[C@H]3CCC[C@H]4CC[C@@H](C(=O)N5C[C@@H](c6ccccc6)[C@H](C#N)C56CC6)N4C3=O)cc2c1 (single isomer, unassigned) [Compound 1080]"

# Same assay, conditions: STAT6, PBMC, compound 3 hrs, then 1 ng/mL IL-4 for 10 min; Table 115
row,Structure (SMILES),IC50 [µM]
1,"CCCOC(=O)[C@H](C)NP(=O)(Oc1ccccc1)C(F)c1ccc2ccc(C(=O)N[C@H]3CCCC[C@H]4CC[C@@H](C(=O)N5C[C@H](c6ccn(C)c(=O)c6)CC56CC6)N4C3=O)cc2c1 (stereo partly drawn) [Compound 443, propyl ((fluoro(7-(((3S,6S,10aS)-3-((S)-6-(1-methyl-2-oxo-1,2-dihydropyridin-4-yl)-4-azaspiro[2.4]heptane-4-carbonyl)-5-oxodecahydropyrrolo [1,2-a]azocin-6-yl)carbamoyl)naphthalen-2-yl)methyl)(phenoxy)phosphoryl)-L-alaninate]",0.1 to 1
2,"CCCOC(=O)[C@H](C)NP(=O)(Oc1ccccc1)C(F)c1ccc2ccc(C(=O)N[C@H]3CCCC[C@H]4CC[C@@H](C(=O)N5CCC(c6cccnc6)C5)N4C3=O)cc2c1 (stereo partly drawn) [Compound 427, propyl ((fluoro(7-(((3S,6S,10aS)-5-oxo-3-(3-(pyridin-3-yl)pyrrolidine-1-carbonyl)decahydropyrrolo[1,2-a]azocin-6-yl)carbamoyl)naphthalen-2-yl)methyl)(phenoxy)phosphoryl)-L-alaninate]",< 0.1
3,"CCCOC(=O)[C@H](C)NP(=O)(Oc1ccccc1)[C@@H](F)c1ccc2sc(C(=O)N[C@H]3CCCC[C@H]4CC[C@@H](C(=O)N5C[C@H](c6cccc(OC(F)F)c6)C(C#N)C56CC6)N4C3=O)cc2c1 (relative stereo) [Compound 338, propyl (((R)-(2-(((3S,6S,10aS)-3-((rel-trans)-7-cyano-6-(3-(difluoromethoxy)phenyl)-4-azaspiro[2.4]heptane-4-carbonyl)-5-oxodecahydropyrrolo [1,2-a]azocin-6-yl)carbamoyl)benzo [b]thiophen-5-yl)fluoromethyl) (phenoxy)phosphoryl)-L-alaninate]",< 0.1
4,"CCCOC(=O)[C@H](C)NP(=O)(Oc1ccccc1)[C@@H](F)c1ccc2sc(C(=O)N[C@H]3CCCC[C@H]4CC[C@@H](C(=O)N5C[C@H](c6cncc(Cl)c6)[C@@H](C#N)C56CC6)N4C3=O)cc2c1 (single isomer, unassigned) [Compound 371]",1 to 3
5,"CCCOC(=O)[C@H](C)NP(=O)(Oc1ccccc1)[C@H](F)c1ccc2sc(C(=O)N[C@H]3C[C@H](C)C[C@H]4CC[C@@H](C(=O)N5C[C@H](c6ccccc6)[C@@H](C#N)C56CC6)N4C3=O)cc2c1 (stereo partly drawn) [Compound 352, propyl (((S)-(2-(((3S,6S,8S,9aR)-3-((6S,7R)-7-cyano-6-phenyl-4-azaspiro[2.4]heptane-4-carbonyl)-8-methyl-5-oxooctahydro-1H-pyrrolo[1,2-a]azepin-6-yl)carbamoyl)benzo [b]thiophen-5-yl)fluoromethyl) (phenoxy)phosphoryl)-L-alaninate]",< 0.1
6,"CC(C)OC(=O)[C@H](C)NP(=O)(Cc1ccc2ccc(C(=O)N[C@H]3CCCC[C@H]4CC[C@@H](C(=O)N5C[C@H](c6cc[nH]c(=O)c6)CC56CC6)N4C3=O)cc2c1)Oc1ccccc1 (stereo partly drawn) [Compound 423, isopropyl (((7-(((3S,6S,10aS)-5-oxo-3-((S)-6-(2-oxo-1,2-dihydropyridin-4-yl)-4-azaspiro[2.4]heptane-4-carbonyl)decahydropyrrolo[1,2-a]azocin-6-yl)carbamoyl)naphthalen-2-yl)methyl)(phenoxy)phosphoryl)-L-alaninate]",0.1 to 1

# Same assay, conditions: read-out: STAT6; PBMC, compound 3 hrs, then 1 ng/mL IL-4 for 10 min; Table 115
row,Structure (SMILES),IC50 [µM]
1,"CCCOC(=O)[C@H](C)NP(=O)(Oc1ccccc1)[C@@H](F)c1ccc2sc(C(=O)N[C@H]3CCC[C@H]4CC[C@@H](C(=O)N5C[C@H](c6cccnc6)[C@@H](C#N)C56CC6)N4C3=O)cc2c1 (single isomer, unassigned) [Compound 363]",< 0.1
